Patent US20240139183A1, “COMPOUND FOR SUPPRESSING NONSENSE-MEDIATED MRNA DECAY” (RiboTech Co., Ltd., priority 2021, published 2024)

What was measured:
[1] = test system: NMD (HeLa cell line constitutively expressing the NMD-target mRNA); experiment: NMD inhibitory effect in HeLa reporter cell line: RLuc mRNA (real-time PCR) and protein (dual luciferase assay); assay type: cell-based; settings: 5 μM, 12 hours, FIG. 4; for amount of RLuc mRNA: real-time PCR
Excerpt: In Example 1, a beta-globin normal gene or the gene including a premature termination codon (PTC) found in genetic diseases was inserted into the downstream of a chemiluminescence gene, Renilla luciferase (RLuc). Normal gene-inserted mRNA was not targeted by NMD, whereas when a gene having PTC was inserted, the mRNA became a NMD target, and as a result, mRNA was quickly broken down and the expression level of RLuc was reduced.
Accordingly, a HeLa cell line constitutively expressing the NMD-target mRNA was prepared, and simultaneously, the cell line was designed to constitutively express a firefly luciferase (FLuc) gene, which was not a target of NMD, and a total of three cell lines NMD20, NMD4, and NMD5 with the same composition were obtained. In order to confirm whether the HeLa cell line prepared above was suitable for measuring NMD efficiency, the following two experiments were performed.
The NMD inhibitory effect of Compounds 1 to 3 was confirmed using the HeLa cell line prepared in Example 1. After treating the cells with Compounds 1 to 3 at 5 μM for 12 hours, respectively, total RNA and protein were purified from the cells, respectively. Then, the amounts of RNA and protein were quantified respectively through real-time PCR and dual luciferase assay methods. The results were illustrated in FIG. 4.

UPF1 = experiment: Western blotting of UPF1 phosphorylation in treated cells; assay type: cell-based; settings: 5 μM, 12 hours, FIG. 5
Procedure: Phosphorylation of UPF1 was known to be one of the most important factors in NMD. In Example 3.1, the effect of the three types of compounds of the present invention on phosphorylation of UPF1 was examined. The cells were treated with each compound at 5 μM for 12 hours, and then total proteins were purified. Then, western blotting was performed using each antibody capable of recognizing Upf1 or Upf1 phosphorylated at a specific site.

[2] = target: T1, binding between UPF1 and UPF2 (Homo sapiens, UniProt Q92900); experiment: FLAG-UPF1 immunoprecipitation / western blotting for UPF1-UPF2 binding; assay type: cell-based; settings: 5 μM, 1 hour; FLAG-UPF1 overexpressed; immunoprecipitation with FLAG antibody; FIG. 6
T1 construct: expressed in transfected cells
T1 sequence (Q92900 1-1129): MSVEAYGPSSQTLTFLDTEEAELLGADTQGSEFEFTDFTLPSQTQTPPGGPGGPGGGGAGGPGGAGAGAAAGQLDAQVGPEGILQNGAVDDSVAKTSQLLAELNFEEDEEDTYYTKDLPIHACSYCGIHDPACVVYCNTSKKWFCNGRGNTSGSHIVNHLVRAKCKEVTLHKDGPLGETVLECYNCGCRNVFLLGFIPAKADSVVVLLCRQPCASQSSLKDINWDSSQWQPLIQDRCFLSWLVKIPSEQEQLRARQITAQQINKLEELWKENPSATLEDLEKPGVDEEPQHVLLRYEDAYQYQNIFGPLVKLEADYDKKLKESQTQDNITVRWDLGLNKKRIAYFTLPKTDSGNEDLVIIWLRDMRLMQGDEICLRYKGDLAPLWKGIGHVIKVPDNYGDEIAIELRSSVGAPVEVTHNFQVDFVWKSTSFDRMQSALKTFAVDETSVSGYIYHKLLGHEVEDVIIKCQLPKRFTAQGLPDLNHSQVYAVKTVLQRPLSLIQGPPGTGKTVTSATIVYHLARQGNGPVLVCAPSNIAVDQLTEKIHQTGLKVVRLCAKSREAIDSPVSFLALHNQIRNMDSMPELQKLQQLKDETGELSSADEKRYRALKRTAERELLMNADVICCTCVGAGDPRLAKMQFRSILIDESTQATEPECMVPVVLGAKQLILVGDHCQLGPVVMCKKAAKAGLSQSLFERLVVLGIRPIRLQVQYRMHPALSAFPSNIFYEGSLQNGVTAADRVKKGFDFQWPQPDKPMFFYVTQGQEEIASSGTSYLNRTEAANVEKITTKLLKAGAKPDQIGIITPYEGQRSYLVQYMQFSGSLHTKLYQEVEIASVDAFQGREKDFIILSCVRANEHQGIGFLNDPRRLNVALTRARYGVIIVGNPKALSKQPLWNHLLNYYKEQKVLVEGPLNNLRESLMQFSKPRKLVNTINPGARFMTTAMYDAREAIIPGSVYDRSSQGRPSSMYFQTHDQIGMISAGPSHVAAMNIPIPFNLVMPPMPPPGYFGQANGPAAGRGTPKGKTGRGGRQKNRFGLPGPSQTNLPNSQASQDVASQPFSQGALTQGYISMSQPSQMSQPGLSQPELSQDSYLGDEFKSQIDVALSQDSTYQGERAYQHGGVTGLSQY
Procedure: In the cell line, DNA expressing FLAG-UPF1 was transiently overexpressed.
After treating the cell line with each compound at 5μM for 1 hour, a cell extract was obtained. Immunoprecipitation was performed on the cell extract obtained using a FLAG antibody.
Proteins before and after immunoprecipitation were analyzed by western blotting.

[3] = test system: NMD steps (Upf1, Upf2, Upf3X tethered to reporter β-6bs mRNA); experiment: Tethering assay: MS2-Upf1, MS2-Upf2, MS2-Upf3 tethered to 3' UTR of reporter mRNA in HeLa cell line, real-time PCR; assay type: cell-based; settings: 5 μM, 6 hours or 12 hours, FIGS. 8 and 9
Procedure: An NMD-based search system capable of artificially reducing the amount of reporter mRNA was constructed, after artificially tethering proteins Upf1, Upf2, and Upf3X acting in each step of NMD to 3′ UTR of reporter mRNA (FIG. 7). Using this method, it was attempted to verify which step of NMD the three types of compounds acted on.
After treating the cell line with each compound at 5 μM for 6 hours or 12 hours, a cell extract was obtained. Thereafter, the relative amount of reporter mRNA was measured through real-time PCR.

[4] = test system: dystrophin protein in cells derived from patients with DMD; experiment: Dystrophin protein by Western blotting in DMD patient-derived cell line; assay type: cell-based, human; settings: 5 μM, 12 hours, FIG. 11

SMILES	amount of RLuc mRNA [1]	effect on phosphorylation of UPF1 (UPF1)	effect on UPF1-UPF2 binding [2]	step of NMD targeted (relative amount of reporter mRNA) [3]	protein translation of RLuc ([1]; dual luciferase assay)	amount of dystrophin protein [4]
Cn1c(=O)n(-c2ccc(C(C)(C)C#N)cc2)c2c3cc(-c4cnc5ccccc5c4)ccc3ncc21 [Compound 2, 2-methyl-2-{4-[3-methyl-2-oxo-8-(quinolin-3-yl)-2,3-dihydro-1H-imidazo[4,5-c]quinolin-1-yl]phenyl}propanenitrile]	significantly increased the amount of mRNA	significantly inhibited phosphorylation of UPF1	did not significantly affect the UPF1-UPF2 binding	did not target the UPF1-UPF2 and UPF2-UPF3 steps		
COc1cc2ncnc(-n3nc(-c4ccccn4)nc3N)c2cc1OC [Compound 3, 1-(6,7-Dimethoxy-4-quinazolinyl)-3-(2-pyridinyl)-1H-1,2,4-Triazol-5-amine]	significantly increased the amount of mRNA	did not significantly affect phosphorylation of UPF1	did not significantly affect the UPF1-UPF2 binding	did not target the UPF1-UPF2 and UPF2-UPF3 steps		
COc1ncc(-c2ccc3nccc(-c4ccnnc4)c3c2)cc1NS(=O)(=O)c1ccc(F)cc1F [Compound 1, 2,4-Difluoro-N-{2-(methyloxy)-5-[4-(4-pyridazinyl)-6-quinolinyl]-3-pyridinyl}benzenesulfonamide]		did not significantly affect phosphorylation of UPF1	significantly inhibited the UPF1-UPF2 binding	targeted a UPF1-UPF2 step	increased protein translation of RLuc	increased
